SMILES strings stand for the structures.

One series in a line: in vitro. The note with it: human, l02 cells. The procedure: (§1) The L02 and Hep3B cells were seeded in 96‐well plates (5000 cells per well), 24 h later, the cells were treated with DMSO (Control group) or each small molecule compound (10 µM) for another 48 h. Then cells were treated with CCK‐8 reagent (Dojindo Laboratories, Kumamoto, Japan) and incubated at 37 °C for 2 h. Absorbance at 450 nm was measured by SpectraMax M2e (Molecular devices, San Jose, CA). Five replicate wells for each group and three independent experiments were conducted. The cell viability (%) of each small molecule compound was normalized as the ratio of each compound/DMSO in L02 and Hep3B cells, respectively. The relative cell viability (%) = The cell viability of L02 cells (%) − The cell viability of Hep3B cells (%). […] Given that the common concentration used in in vitro drug screening is 10 µM,^[ [24] ^] therefore, in the three rounds of drug screening, all small molecules are 10 µM. […] A) Flowchart of functional screening. B) Scattered plot showing the cell viability of each small molecule in human normal fetal liver cell L02 and liver cancer Hep3B cells, 48 h after treatment with each compound (10 µM). […] C) Images and statistical histogram of 3D tumor spheroids from Hep3B (cultured for 5 days, followed by treated with 16 candidate compounds (10 µM) for another 3 days). Tumor spheroid was quantified as the total cross‐sectional area of spheroid in each group (area mean), n = 3, Means ± SD, ^* p < 0.05, ^** p < 0.01, Student's t‐test. D) Statistical histogram of the CD13^+CD133^+ population, 48 h after treatment with each candidate compound (10 µM), analyzed by FCM, n = 3, Means ± SD; ^* p < 0.05, ^** p < 0.01; Student's t‐test. E) Representative images of tumorspheres from HCC cells that received a 48‐h pretreatment with each candidate compound (10 µM) before tumorsphere culture. Bars, 1000 µm. Tumorspheres were quantified as the total cross‐sectional area of tumorspheres in each group (area sum), and similarly hereafter unless indicated. Statistical histogram of the tumorsphere size. n = 3, means ± SD, each compound compared with DMSO, ^* p < 0.05, ^** p < 0.01, Student's t‐test. F) Heat maps of functional screening results, shown by the relative value of CD13^+CD133^+ population (D) and tumorsphere size (E), with normalizing the vehicle group as 100%. CU27 chemical structure is shown in the right.

In a further series the test system is Hep3B. The series can be described thus: cells. The note with it: 48 h; for viability at 10 µM: Homo sapiens, Hep3B, read-out: Cell viability of Hep3B (Mean of Hep3B/DMSO) (%). On the procedure:
as §1

Series [1] deals with T1, truncated c-Myc protein (a.a 354-437) (Homo sapiens, UniProt P01106).
T1 construct: bHLH/LZ domain fragment, residues 354-437; purified by DEAE ion exchange; coupled to CM5 chip; no Max present
The series can be described thus: SPR (Biacore S200, CM5 chip). The series is classed as binding. In general terms: In SPR one partner is held on a chip, and binding of the other changes the refractive index at the surface.

T1 sequence (P01106 369-452): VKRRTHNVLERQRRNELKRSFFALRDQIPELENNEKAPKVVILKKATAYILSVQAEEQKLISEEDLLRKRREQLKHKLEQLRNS

As to `COc1ccc(COc2cc3oc(=O)c4cc(C(C)O)ccc4c3cc2OC)cc1` (stereo not drawn) [Palomid529], the viability at 48 h, 10 µM in the series “in vitro” was found to be 58.1%. In the series with Hep3B, the viability at 10 µM turned out to be 62.4%.

For `O=C1NCCc2[nH]c(-c3ccncc3)cc21` [PHA-767491], the viability at 48 h, 10 µM in the series “in vitro” amounted to 22.2%. Consider `CCn1c(-c2nonc2N)nc2c(C#CC(C)(C)O)ncc(OC[C@H]3CCCNC3)c21` [GSK690693], for which the viability at 48 h, 10 µM in “in vitro” is 49.3%. Further, the viability at 10 µM in the series with Hep3B was found to be 63.8%.

The compound `CCn1c(=O)c(-c2cc[nH]n2)cc2c(C)nc(N)nc21` [Voxtalisib] showed a viability at 48 h, 10 µM in the series “in vitro” of 26.9%. Moreover, the viability at 10 µM in the series with Hep3B is 23.1%. The like results for `c1ccc2c(CCNc3ccc(Nc4ccncc4)cc3)c[nH]c2c1` [JNJ26854165] were, in that order, 38% and 17.7%. Regarding `Cc1[nH]nc2ccc(-c3cncc(OC[C@@H](N)Cc4ccccc4)c3)cc12` [A-674563], in the series on Hep3B, the viability at 10 µM worked out at 21.7%. For `O=C1NC(=O)/C(=C/c2ccc3nccc(-c4ccncc4)c3c2)S1` [GSK1059615], the viability at 48 h, 10 µM in “in vitro” was found to be 13.5%. Moreover, the viability at 10 µM in the series on Hep3B stood at 17.9%. With `O=S(=O)(NCCNC/C=C/c1ccc(Br)cc1)c1cccc2cnccc12` [H89 2HCL], the viability at 10 µM with Hep3B turned out to be 57%. For the compound `NC1(Cc2ccc(Cl)cc2)CCN(c2ncnc3[nH]ccc23)CC1` [CCT128930], the viability at 10 µM with Hep3B is 34.4%. Regarding `CCC(=O)N1CCN(c2ccc(-n3c(=O)ccc4cnc5ccc(-c6cnc7ccccc7c6)cc5c43)cc2C(F)(F)F)CC1` [Torin1], the viability at 10 µM in the series on Hep3B was 24%. `C=CCNC(=[Se])NN=C(c1ccccc1)c1ncccn1` [4a, Phenyl‐2‐pyrimidinyl ketone 4‐allyl‐3‐amino selenourea] had a viability at 48 h, 10 µM in “in vitro” of 79.4%. Also, in series [1], the affinity, expressed as Kd, was 0.562 nM. `CNC(=O)Nc1ccc(-c2nc(N3CC4CCC(C3)O4)c3cnn(C4CCC5(CC4)OCCO5)c3n2)cc1` [WYE-125132] gave a viability at 48 h, 10 µM in “in vitro” of 45.1%. Besides, in the series on Hep3B, the viability at 10 µM worked out at 27.2%. On to `Cn1c(=O)n(-c2ccc(C(C)(C)C#N)cc2)c2c3cc(-c4cnc5ccccc5c4)ccc3ncc21` [Dactolisib], for which the viability at 48 h, 10 µM in “in vitro” amounted to 27.2%. For the same compound, the “Cell viability of Hep3B (Mean of Hep3B/DMSO) (%)” value in the series on Hep3B ([mut] cells, 10 µM) is reported as 21.03%. As to `CC(C)n1nc(-c2cc3cc(O)ccc3[nH]2)c2c(N)ncnc21` [Torkinib], the viability at 10 µM with Hep3B was found to be 44.8%. As for `Cc1c(CN2CCN(C(=O)[C@H](C)O)CC2)sc2c(N3CCOCC3)nc(-c3cnc(N)nc3)nc12` [Apitolisib], the viability at 48 h, 10 µM in the series “in vitro” stood at 37.1%. Also, the viability at 10 µM in the series with Hep3B came out at 29.4%.

Usually Kd stands for the concentration at which binding is half-saturated. Low values mean a tighter complex, high ones a looser complex.
